Measured values reported in patent US20150140015A1, “METHODS AND PHARMACEUTICAL COMPOSITIONS FOR THE TREATMENT OF PANCREATIC CANCER” (INSERM (Institut National de la Sante et de la Recherche …, priority 2013, published 2015).

Key:
[1] = system: AsPC-1 cells xenografted in nude mice; test: Tumorigenicity assay: AsPC-1 cells xenografted in nude mice; format: in vivo
[2] = system: recombinant HPAF-II/OX1R cells xenografted in nude mice; test: Tumorigenicity assay: recombinant HPAF-II/OX1R cells xenografted in nude mice; format: in vivo
Experimental: FIG. 8A-C. Effect of daily inoculation of orexin-A on the growth of tumors developed by xenografting OX1R expressing recombinant HPAF-II cells in nude mice. Parental HPAF-II (A) or recombinant OX1R/HPAF-II/cells (B) were inoculated in the flank of nude mice at day 0. Mice were injected daily intraperitoneally with 100 μl of 1 μmoles of orexin-A/Kg solutions starting at day 0 for both cell lines (◯) or day 28 for OX1R/HPAF-II cells (▴) or with 100 μl of PBS ([…]) for controls. The development of tumors was followed by caliper measurement; C. Formalin-fixed xenografted HPAF-II or OX1R/HPAF-II tumors from nude mice intraperitoneally injected daily or not with 1 μmoles/Kg orexin-A were analyzed by cleaved caspase-3 immunostaining. Cleaved caspase-3 positive cells were counted in 10 different fields, each comprising 500 tumoral cells, in the presence (black bars) or absence (white bars) of 50 days orexin-A treatment. Data are the means±SE of 6 tumors in each group; *** p<0.01 versus control.
Control mice received PBS.
After dewaxing, rehydrating tumor paraffin sections, and antigen retrieval by pretreatment with high temperature at pH 9, immunohistochemical procedures were carried out using an automated immunohistochemical stainer according to the manufacturer's guidelines (Bond-Max slide stainer, Menarini, Leica Microsystems). For immunohistochemistry on cell lines, cells in pellets were fixed in formalin, embedded in cell blocks (Shandon Cytoblock; Thermo Scientific; USA) and cut into 3 μm sections. […] OX1R immunostaining was evaluated by two investigators (TV and AC) by calculating a score (0-300) obtained by multiplying the intensity (negative, 0; weak, 1; moderate, 2; and strong, 3) by the percentage of stained cells. The pattern of expression (cytoplasmic, membranous, and nuclear) was also recorded, and a mean score was calculated for each tumor. […] Cleaved caspase-3 immunostaining was determined by calculating the percentage of tumor cells stained in 10 fields of xenografted tumor cells, each field comprising 500 tumor cells.

[3] = system: parental HPAF-II cells; test: Quantification of apoptotic cells by annexin V-PE labeling in parental HPAF-II cells; format: cell-based, human; conditions: 1 μM orexin-A
Experimental: FIGS. 5A and B. Effect of orexin-A on apoptosis in OX1R expressing recombinant OX1R/HPAF-II cells. A, Parental HPAF-II and recombinant OX1R/HPAF-II cells were challenged with (black bars) or without (white bars) 1 μM orexin-A for 48 hr in the absence or presence of the SHP-2 protein tyrosine phosphatase inhibitor, NSC-87877 (50 μM). Apoptosis was measured by determination of annexin V-PE binding. Results are expressed as the percentage of apoptotic cells, and are the means±SE of three separate experiments. ***p<0.001; ns, non-significant; B, paraformaldehyde-fixed HPAF-II cells and recombinant OX1R/HPAF-II cells were challenged with or without (Basal) 1 μM orexin-A for 48 hr. Indirect immunostaining of activated caspase-3 in parental HPAF-II cells (left panels) and recombinant OX1R/HPAF-II cells (right panels) in the presence (bottom panels) or tabsence (top panels) of orexin-A is illustrated in B.
AsPC-1, SW 1990, HPAF-II and HPAF-II/hOX1R cells (seeded at 5×10^4 cells/well) were grown in 24-well plates for 24 hr under the culture conditions described above. The culture medium was then replaced every 24 hr with fresh medium with or without orexin-A (GL Biochemicals) at a concentration of 1 μM in the presence or absence of the SHP-2 inhibitor, NSC-87877 (50 μM) (Calbiochem, VWR International SAS, France). At the end of the treatment (48 hr), apoptotic cells were determined using the Guava Nexin™ kit (Guava Technologies, Hayward, Calif., USA), which discriminates between apoptotic and non-apoptotic cells (Rouet-Benzineb P, Rouyer-Fessard C, Jarry A, et al. Orexins Acting at Native OX1 Receptor in Colon Cancer and Neuroblastoma Cells or at Recombinant OX1 Receptor Suppress Cell Growth by Inducing Apoptosis. J Biol Chem 2004; 279:45875-86), analyzed with the Guava Personal Cell Analysis (PCA) system (Merck-Millipore, Guyancourt, France), and counted (2,000 events) (Voisin et al, 2008, as above). Results are expressed as the percentage of apoptotic phycoerythrin-labelled Annexin V (Annexin V-PE) positive cells and are the means of 3 independent analyses.

orexin-A: 33 amino acid hypothalamic neuropeptide, OX1R agonist, SEQ ID NO:2; peptide from GL Biochemicals
tumor volume decrease under other injection frequencies ([1]; 2 or 3 injections/week (data not shown)): same results | reduction of tumor volume versus daily injections ([1]; once or twice weekly therapy (data not shown)): equivalent or even more effective | caspase-3 activation in tumors as compared to tumors from parental HPAF-II cells ([2]; 1 μmoles/Kg daily i.p., 50 days, cleaved caspase-3 positive cells): 3.5 fold | tumor volumes, treatment of established tumors ([2]; orexin-A started after 28 days tumor growth): significant reduction in tumor volumes | inhibition of tumor development ([2]; treated daily with orexin-A from day 0): about 65% | induction of apoptosis ([3]; 48 hr, untransfected parental HPAF-II cells): did not induce apoptosis | annexin-V positive apoptotic cells ([3]; untransfected cells): 2.1%±0.4
